Test results taken from patent publication US20250025440A1, “COMPOSITIONS AND METHODS FOR MANAGEMENT OF HUMAN PAPILLOMA VIRUS-ASSOCIATED CANCERS” (LOMA LINDA UNIVERSITY, priority 2021, published 2025).

Tests used:
Assay type in all cases: cell-based
[1] = test system: HPV- cell lines (SCC19, SCC84); assay: Caspase 3/7 activity Glo assay; settings: 0.75 μM, 24 hours
Description: (§1) These findings were then confirmed by conducting a Caspase 3/7 activity Glo assay, which is a surrogate for apoptotic induction. Three HPV^+ cell lines (SCC090, SCC104, SiHa) and two HPV^− cell lines (SCC19, SCC84) were assessed for activity of caspases 3 and 7, and thus for apoptosis activity. […] FIG. 8B is a graphical representation of the Caspase 3/7 activity of gambogic acid in various HPV+ and HPV− cell lines. These cell lines were seeded in 96 well plates and treated with 0.75 uM GA-OH. Caspase 3/7 activity was measured after 24 hours. HPV^+ cell lines show high levels of Caspase 3/7 activity. […] FIG. 10 is a graphical representation of the cell viability as measured by MTT, when three HPV^+ cell lines (SCC090, SCC104, SiHa) and two HPV^− cell lines (SCC19, SCC84) were treated with gambogic acid.
(§2) Cells were seeded into white walled 96-well plates at 2×10^4 cells per well in 100 μL media and incubated overnight. GA-OH (0.75 μM) and vehicle were then added and incubated at 37° C. for 24 hr. Caspase 3/7 activity was measured using the Caspase 3/7 Glo kit (Promega, Fitchburg, WI, USA) following the manufacturer's instructions. Briefly, room temperature-equilibrated Caspase-Glo reagent was added (Promega) to each well. […] After a 2-hr incubation, luminescence was measured using a plate-reading fluorimeter (Flx800, Bio-Tek Instrument Co., Winooski, VT, USA). […]

[2] = test system: HPV+ cell lines (SCC090, SCC104, SiHa); assay: Caspase 3/7 activity Glo assay; settings: 0.75 μM, 24 hours
Description: as §1, §2

[3] = test system: SCC104 (HPV+ HNSCC cell line); assay: MTT cell viability of gambogic acid analogs; settings: SCC104, 24 hr
Description: Next, the analogs were evaluated for functional activity using the HPV^+ HNSCC cell line, SCC104, in the MTT assay as described previously to determine whether similar findings would be observed as in the in vitro AlphaScreen™ analysis. With one exception, the patterns were similar to the AlphaScreen™ data, but the differences were relatively more pronounced in the cell-based screen (FIG. 6B). […] Based on these findings, 30-hydroxygambogic acid (GA-OH) was selected as a candidate for more extensive functional studies.
Using the SciFinder and Zinc15 databases, several gambogic acid structural analogs were identified and selected. The 8 analogs were obtained as follow: gambogenic amide (Enzo Life Sciences), gambogenic acid (Selleckchem), morellic acid (Aobious), 30-hydroxy gambogic acid (Quality Phytochemicals, LLC), acetyl gambogic acid (Microsource), and gambogin, neogambogic acid and isomorellinol (MolPort Natural Products). Additional gambogic acid was purchased from Tocris. The interactions of the analogues with E6-caspase 8 was tested using AlphaScreen™ technology using the same protocol as with the primary screen, and were compared to the parent compound. The effect on cell viability was also similarly done in HPV^+ and HPV^− cell lines via the MTT assay (see below) and potency was determined using GraphPad IC50 curve fitting.
All working concentrations were diluted in PBS to the desired concentration before use. To test the effect of gambogic acid and/or its derivatives on cell viability, all cell lines were seeded at 2×10^4 per well in 96-well plates and allowed to adhere overnight. Various concentrations of the analogues were added and the cells incubated at 37° C. for 24 hr. Viability was then measured using the MTT assay, performed as described previously. All experiments were repeated at least three times (three biological replicates, carried out on different days). Data presented are from a representative experiment. Cell viability and potency were assessed from % inhibition relative to the vehicle control, and IC50 dose curves were generated using GraphPad Prism.

30-hydroxygambogic acid [GA-OH]
Caspase 3/7 activity (apoptosis induction) [1]: little to no apoptosis activity | Caspase 3/7 activity (apoptosis induction) [2]: Significant apoptosis induction | potency in MTT assay [3]: highest potency of all analogs
